# Results from publication PMC8964421, “Widespread occurrence of covalent lysine–cysteine redox switches in proteins” (Nature Chemical Biology, 2022).
# Biological target: T1, NgTAL; transaldolase from Neisseria gonorrhoeae (Neisseria gonorrhoeae, UniProt Q5F6E9)
# T1 construct: gene tal; recombinant from pET SUMO vector, purified
# T1 sequence (Q5F6E9 1-351): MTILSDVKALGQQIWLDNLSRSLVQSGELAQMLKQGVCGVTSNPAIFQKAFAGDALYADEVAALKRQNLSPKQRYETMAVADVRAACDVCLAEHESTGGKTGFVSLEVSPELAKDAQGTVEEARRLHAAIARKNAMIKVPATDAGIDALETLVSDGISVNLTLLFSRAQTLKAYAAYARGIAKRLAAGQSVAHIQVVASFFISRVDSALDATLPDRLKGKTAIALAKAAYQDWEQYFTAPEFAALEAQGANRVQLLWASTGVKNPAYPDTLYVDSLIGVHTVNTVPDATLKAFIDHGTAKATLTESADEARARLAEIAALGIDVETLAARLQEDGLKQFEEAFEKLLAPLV
# Test: coupled enzymatic assay at […] nm, steady-state kinetics
# Format: biochemical
# Conditions: co-substrate D-erythrose-4-phosphate; reducing (1 mM DTT) and non-reducing conditions; varied substrate not named in main text
compound,measurement,value
O=P(O)(O)OC[C@H]1OC(O)(CO)[C@@H](O)[C@@H]1O (stereo partly drawn) [D-fructose-6-phosphate],Michaelis constant,monitors the conversion of ketose donor D-fructose-6-phosphate and aldose acceptor D-erythrose-4-phosphate into products
